Assay results published in US10457811B2, “Surface-modified calcium oxide” (Kalkfabrik Netstal AG, priority 2012, dated 2019).
Structures can show the parent of a compound that is named as a salt.

System: Erwinia amylovora strain 385 (Ea385)
Assay: Fire blight test on inoculated apple blossoms (Gala)
Format: in vivo
Settings: 0.06% spray solution, 1 hour after inoculation, reduction of infestation after 6 days
Description: Finely pulverized CaO was coated with stearic acid (5% by weight of stearic acid relative to CaO) and was tested, as dust on apple blossoms, against fire blight. The standardized tests were carried out at an institute certified therefor (bio-ferm Research GmbH, DE). Apple blossoms of the Gala type were placed, with the pedicel, in a 10% saccharose solution and were incubated in a humid chamber. Inoculation/pathogen: Erwinia amylovora strain 385 (Ea385), as a bacterial suspension of fresh cultures with 10 million cells per milliliter, was sprayed onto the blossoms. Infested blossoms were treated, 1 hour after inoculation, with the coated CaO as dust (test series) or were subjected to the standard treatment (streptomycin sulfate 0.06% as spray solution; control and benchmark). Evaluation: The blossoms were investigated after 6 days, and analyzed in terms of the pathogen-typical features of an infection (slime spots). 39% of the blossoms without treatment were infested with fire blight. The reduction of the infestation by means of the corresponding treatment was evaluated, in terms of the efficacy of the treatment.

[H]/N=C(/N)N[C@H]1[C@H](O)[C@@H](O)[C@H](O[C@@H]2O[C@@H](C)[C@](O)(C=O)[C@H]2O[C@@H]2O[C@@H](CO)[C@H](O)[C@@H](O)[C@@H]2NC)[C@@H](N/C(N)=N\[H])[C@@H]1O [Streptomycin sulfate, streptomycin sulfate]
Efficacy of the treatment: 68%
